± gives the expanded uncertainty stated by the source.
Assays:
[1] = Liquid; for mass density: 293.15 K, 101.33 kPa, Vibrating tube method; for Normal boiling temperature: Ebulliometric method (Recirculating still)
[2] = refractive index (Na D-line) (dimensionless); settings: 293.15 K; 101.33 kPa; Liquid; Standard Abbe refractometry

Row | mass density [1] [kg/m3] | Normal boiling temperature [1] [°C] | refractive index [2] | SMILES
1 | 998.4 ± 1 | 100.1 ± 0.5 | 1.3328 ± 0.0008 | O [water]
2 | 813.7 ± 1 | 137.80 ± 0.51 | 1.4087 ± 0.0008 | CCCCCO [pentan-1-ol]
3 | 790 ± 1 | 78.40 ± 0.5 | 1.3616 ± 0.0008 | CCO [ethanol]
4 | 801.7 ± 1 | 107.00 ± 0.5 | 1.3955 ± 0.0008 | CC(C)CO [2-methyl-1-propanol]

Reference: the NIST ThermoML archive (doi:10.1016/j.fluid.2013.03.029)
